Data as given in ChEMBL document CHEMBL1201862, “PubChem BioAssay data set” (2004).
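Growth conditions: 96-well plates. Treatment: test compound, 48 hours, 5 concentrations. Analysis: linear interpolation between bracketing concentrations; unreached endpoints set to highest concentration. GI50 = concentration required for 50% inhibition of growth.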 Calls of active or inactive are those of the source. Rule as the data show it: active = GI50 up to about 1.1 µM and inactive = higher.

How the values were obtained:
Test in all cases: NCI-60 cell line screen, 48 h
[1] = test system: ACHN
[2] = test system: SK-MEL-5
[3] = test system: SK-MEL-2
[4] = test system: T47D
[5] = test system: MDA-MB-231
[6] = test system: TK-10
[7] = test system: MOLT-4
[8] = test system: MDA-N
[9] = test system: UACC-257
[10] = test system: BT-549
[11] = test system: COLO 205
[12] = test system: EKVX
[13] = test system: PC-3
[14] = test system: DU-145
[15] = test system: K562
[16] = test system: CCRF-CEM
[17] = test system: SR
[18] = test system: IGROV-1
[19] = test system: HCT-15
[20] = test system: NCI-H460

SMILES | GI50 [1] | GI50 [2] | GI50 [3] | GI50 [4] | GI50 [5] | GI50 [6] | GI50 [7] | GI50 [8] | GI50 [9] | GI50 [10] | GI50 [11] | GI50 [12] | GI50 [13] | GI50 [14] | GI50 [15] | GI50 [16] | GI50 [17] | GI50 [18] | GI50 [19] | GI50 [20]
NC1=NC2(COC(c3ccccc3)(c3ccccc3)c3ccccc3)OC(COC(c3ccccc3)(c3ccccc3)c3ccccc3)C(O)C2O1 (stereo not drawn) | 88.3 µM (inactive) | 26.1 µM (inactive) | 5.77 µM (inactive) | 53.1 µM (inactive) | 67.1 µM (inactive) | 18.9 µM (inactive) | 13.2 µM (inactive) | 85.1 µM (inactive) | 51.2 µM (inactive) | 41.3 µM (inactive) | 67.1 µM (inactive) | 16.4 µM (inactive) | 11.2 µM (inactive) | > 100 µM (inactive) | 21.8 µM (inactive) | 21.3 µM (inactive) | 32.9 µM (inactive) | 21.8 µM (inactive) | > 100 µM | –
O=C1c2ccccc2C(=O)c2c1oc(=O)c1ccccc21 | 4.59 µM (inactive) | 1.29 µM (inactive) | 4.84 µM (inactive) | 5.47 µM (inactive) | 3.74 µM (inactive) | 8.89 µM (inactive) | 3.79 µM (inactive) | 2.2 µM (inactive) | 3.22 µM (inactive) | 4.51 µM (inactive) | 9.71 µM (inactive) | 5.77 µM (inactive) | 5.37 µM (inactive) | 5.46 µM (inactive) | 4 µM (inactive) | 1.93 µM (inactive) | 3.75 µM (inactive) | 3.73 µM (inactive) | 3.26 µM | 4.38 µM (inactive)
c1csc(-c2cc(-c3ccsc3)cs2)c1 | > 100 µM (inactive) | > 100 µM (inactive) | 98.6 µM (inactive) | > 100 µM (inactive) | > 100 µM (inactive) | > 100 µM (inactive) | 87.1 µM (inactive) | > 100 µM (inactive) | > 100 µM (inactive) | > 100 µM (inactive) | > 100 µM (inactive) | 52.7 µM (inactive) | > 100 µM (inactive) | > 100 µM (inactive) | > 100 µM (inactive) | > 100 µM (inactive) | 14.4 µM (inactive) | 45.2 µM (inactive) | > 100 µM | > 100 µM (inactive)
CC1CC(C#N)=C2NCCCCN2C1=O (stereo not drawn) | – | > 100 µM (inactive) | > 100 µM (inactive) | > 100 µM (inactive) | > 100 µM (inactive) | > 100 µM (inactive) | > 100 µM (inactive) | > 100 µM (inactive) | > 100 µM (inactive) | > 100 µM (inactive) | > 100 µM (inactive) | > 100 µM (inactive) | > 100 µM (inactive) | > 100 µM (inactive) | > 100 µM (inactive) | > 100 µM (inactive) | > 100 µM (inactive) | > 100 µM (inactive) | > 100 µM | > 100 µM (inactive)
